These results are taken from patent US9695155B2, “Herbicidal substituted pyrimidinyloxy benzene compounds” (E. I. DU PONT DE NEMOURS AND COMPANY, priority 2013, dated 2017).

For assay [1], the system named is large (Lg) crabgrass. The assay is described as follows: Test A preemergence. As to conditions: for pest or weed control at 125 g/ha / pest or weed control at 500 g/ha: Digitaria sanguinalis, pre-emergence, 240 h; for pest or weed control at 500 g/ha / Crabgrass, Large plant response rating: 500 g ai/ha. It is filed as in vivo, Digitaria sanguinalis. A digest of the protocol:
(§1)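 Visual injury scored 0–100 (100 = complete control) against untreated controls about 10 days after treatment in a greenhouse. Test chemicals, formulated with surfactant in non-phytotoxic solvent, were sprayed on soil preemergence or on 2-10 cm, one- to two-leaf plants postemergence.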

In assay [2] the test system is barnyardgrass. The assay is described as follows: Test A postemergence. It is filed as in vivo, Echinochloa crus-galli. Particulars: for pest or weed control at 125 g/ha / pest or weed control at 500 g/ha: Echinochloa crus-galli, post-emergence, 240 h. A digest of the protocol:
as §1

Assay [3] relates to wheat. Kind of assay: Test A postemergence. It is filed as in vivo, Triticum aestivum. As to conditions: for plant injury at 125 g/ha / plant injury at 500 g/ha: Triticum aestivum, post-emergence, 240 h. A digest of the protocol: as §1
In assay [4] the test system is Heteranthera limosa. Kind of assay: Test B flooded paddy test. It is filed as in vivo. Particulars: Flood, 250 g ai/ha, 0 to 100 scale where 0 is no effect and 100 is complete control; for pest or weed control at 250 g/ha: Heteranthera limosa, read-out: Plant response rating, Ducksalad. In short, it runs like this: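 Plants at 2-leaf stage; pots flooded to 3 cm above soil and compound applied directly into paddy water, depth held throughout. After 13 to 15 days in greenhouse, visual rating versus controls on 0 (no effect) to 100 (complete control) scale.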

The subject of assay [5] is morningglory. Kind of assay: Test C postemergence. It is filed as in vivo, Ipomoea coccinea. From the text:
Seeds of plant species selected from blackgrass (Alopecurus myosuroides), Italian ryegrass (Lolium multiflorum), wheat, winter (winter wheat, Triticum aestivum), galium (catchweed bedstraw, Galium aparine), corn (Zea mays), large (Lg) crabgrass (Digitaria sanguinalis), giant foxtail (Setaria faberii), johnsongrass (Sorghum halepense), lambsquarters (Chenopodium album), morningglory (Ipomoea coccinea), yellow nutsedge (Cyperus esculentus), pigweed (Amaranthus retroflexus), ragweed (common ragweed, Ambrosia elatior), soybean (Glycine max), barnyardgrass (Echinochloa crus-galli), oilseed rape (Brassica napus), waterhemp (common waterhemp, Amaranthus rudis), kochia (Kochia scoparia), wild oat (Avena fatua), surinam grass (Brachiaria decumbens), foxtail, green (green foxtail, Setaria viridis), goosegrass (Eleusine indica), bromegrass, downy (downy bromegrass, Bromus tectorum), nightshade (eastern black nightshade, Solanum ptycanthum), cocklebur (common cocklebur, Xanthium strumarium), cupgrass, woolly (woolly cupgrass, Eriochloa villosa), bermudagrass (Cynodon dactylon), sunflower, (common oilseed sunflower, Helianthus annuus), Russian thistle (Salsola kali), and velvetleaf (Abutilon theophrasti) were planted into a blend of loam soil and sand and treated preemergence with test chemicals formulated in a non-phytotoxic solvent mixture which included a surfactant.
At the same time, plants selected from these crop and weed species and also barley, winter (winter barley, Hordeum vulgare), windgrass (Apera spica-venti), chickweed (common chickweed, Stellaria media), deadnettle (henbit deadnettle, Lamium amplexicaule), and canarygrass (littleseed canarygrass, Phalaris minor) were planted in pots containing Redi-Earth® planting medium (Scotts Company, 14111 Scottslawn Road, Marysville, Ohio 43041) comprising spaghnum peat moss, vermiculite, wetting agent and starter nutrients and treated with postemergence applications of test chemicals formulated in the same manner. Plants ranged in height from 2 to 18 cm (1- to 4-leaf stage) for postemergence treatments. Treated plants and controls were maintained in a greenhouse for 13 to 15 days, after which time all species were compared to controls and visually evaluated. Plant response ratings, summarized in Table C, are based on a scale of 0 to 100 where 0 is no effect and 100 is complete control. A dash (-) response means no test result.

Where [6] appears, read: Ipomoea, post-emergence, Postemergence, 62 g ai/ha, scale 0 to 100 (0 no effect, 100 complete control), read-out: Plant response rating, Morningglory.
Setting [7] is: 125 g ai/ha, 0 to 100 scale where 0 is no effect and 100 is complete control.
Where [8] appears, read: 0 to 100 scale, 0 no effect, 100 complete control, approx. 10 days.
Where [9] appears, read: 500 g ai/ha, 0 to 100 scale, 0 no effect, 100 complete control.
[10] abbreviates: Postemergence, 31 g ai/ha, scale 0 to 100 (0 no effect, 100 complete control), 13 to 15 days.
Setting [11] is: Postemergence, 62 g ai/ha, scale 0 to 100 (0 no effect, 100 complete control).
[12] abbreviates: 1000 g ai/ha, 0 to 100 scale, 0 no effect, 100 complete control.

Each structure is given as a SMILES string. Like-named read-outs stand apart in the source and are kept apart here.

In the case of `Fc1cnc(Oc2ccccc2-n2cc(Br)cn2)nc1` [Compound 10, 2-[2-(4-bromo-1H-pyrazol-1-yl)phenoxy]-5-fluoropyrimidine], the pest or weed control at 125 g/ha in assay [1] (125 g ai/ha, 0 to 100 scale where 0 is no effect and 100 is complete control, read-out: Crabgrass, Large plant response rating) amounted to 100%; in assay [2] (125 g ai/ha, 0 to 100 scale where 0 is no effect and 100 is complete control, read-out: Plant response rating, Barnyardgrass), 40%; in assay [5] (Ipomoea, post-emergence, 125 g ai/ha, postemergence, read-out: Plant response rating (0 to 100), Morningglory) it was 65%. In addition, the pest or weed control at 500 g/ha in assay [1] (0 to 100 scale, 0 no effect, 100 complete control, approx. 10 days, read-out: Crabgrass, Large plant response rating) came out at 100%; in assay [2] (500 g ai/ha, 0 to 100 scale, 0 no effect, 100 complete control, read-out: Plant response rating Barnyardgrass), 90%. Further, the plant injury at 125 g/ha in assay [3] (125 g ai/ha, 0 to 100 scale where 0 is no effect and 100 is complete control, read-out: Plant response rating, Wheat) is 0%. Also, the plant injury at 500 g/ha in assay [3] (500 g ai/ha, 0 to 100 scale, 0 no effect, 100 complete control, read-out: Plant response rating Wheat) is 60%. The pest or weed control at 250 g/ha in assay [4] came out at 75%; in assay [5] (Ipomoea, post-emergence, 250 g ai/ha, postemergence, read-out: Plant response rating (0 to 100), Morningglory) it was 85%. In addition, the pest or weed control at 31 g/ha in assay [5] (Ipomoea, post-emergence, Postemergence, 31 g ai/ha, scale 0 to 100 (0 no effect, 100 complete control), 13 to 15 days, read-out: Plant response rating, Morningglory) amounted to 40%. The pest or weed control at 62 g/ha in assay [5] (setting [6]) came to 65%.
With `N#Cc1cccc(Oc2ncc(F)cn2)c1-n1cc(Br)cn1` [Compound 62], the “Plant response rating, Crabgrass, Large” value in assay [1] (setting [7]) worked out at 90. Moreover, the “Crabgrass, Large plant response rating” value in assay [1] (setting [8]) was determined as 100. Further, the “Plant response rating, Barnyardgrass” value in assay [2] (setting [7]) is on record as 90; in assay [2] (setting [9]) it was 100. Also, the “Plant response rating, Wheat” value was found to be 20 in assay [3] (setting [7]) and 100 in assay [3] (setting [9]). Moreover, in assay [4], the “Plant response rating, Ducksalad” value worked out at 80. The “Plant response rating (0 to 100), Morningglory” value was 85 in assay [5] (125 g ai/ha, postemergence) and 90 in assay [5] (250 g ai/ha, postemergence). The “Plant response rating, Morningglory” value in assay [5] (setting [10]) is on record as 65; in assay [5] (setting [11]), 70.
As for `Clc1cnc(Oc2cccc(Br)c2-n2cc(Br)cn2)nc1` [Compound 65], the “Plant response rating, Crabgrass, Large” value in assay [1] (setting [12]) came to 100. Also, the “Plant response rating, Barnyardgrass” value in assay [2] (setting [12]) is recorded as 100. The “Plant response rating, Wheat” value in assay [3] (setting [12]) was 60. Besides, the “Plant response rating, Ducksalad” value in assay [4] is on record as 95. For the same compound, in assay [5] (125 g ai/ha, postemergence), the “Plant response rating (0 to 100), Morningglory” value was 95. Further, the “Plant response rating, Morningglory” value turned out to be 30 in assay [5] (setting [10]) and 65 in assay [5] (setting [11]).
Take `N#Cc1cccc(Oc2ncc(Cl)cn2)c1-n1cnc(Br)c1` [Compound 74]: the “Plant response rating, Crabgrass, Large” value in assay [1] (setting [7]) turned out to be 100. Moreover, the “Crabgrass, Large plant response rating” value in assay [1] (setting [8]) turned out to be 100. The “Plant response rating, Barnyardgrass” value in assay [2] (setting [7]) and in assay [2] (setting [9]) was 90 each time. Further, the “Plant response rating, Wheat” value was 0 in assay [3] (setting [7]); 50 in assay [3] (500 g ai/ha, 0 to 100 scale where 0 is no effect and 100 is complete control). In assay [4], the “Plant response rating, Ducksalad” value is 40. Moreover, the “Plant response rating (0 to 100), Morningglory” value is 75 in assay [5] (125 g ai/ha, postemergence) and 85 in assay [5] (250 g ai/ha, postemergence). For the same compound, the results for the “Plant response rating, Morningglory” value in assay [5] (setting [10]) and in assay [5] (setting [11]) were 60 and 75, respectively.
In the case of `CC(=NO)c1cn(-c2c(Br)cccc2Oc2ncc(Cl)cn2)nn1` [Compound 115], the “Plant response rating, Crabgrass, Large” value in assay [1] (setting [12]) turned out to be 100. In addition, the “Plant response rating, Barnyardgrass” value in assay [2] (setting [12]) worked out at 90. In addition, the “Plant response rating, Wheat” value in assay [3] (setting [12]) was found to be 90. In addition, the “Plant response rating, Ducksalad” value in assay [4] was 70. Also, the “Plant response rating (0 to 100), Morningglory” value in assay [5] (8 g ai/ha, postemergence, 0 is no effect, 100 is complete control) is given as 0; in assay [5] (16 g ai/ha, postemergence, 0 is no effect, 100 is complete control), 40.
Take `Fc1cccc(Oc2ncc(Cl)cn2)c1-n1cc(Br)cn1` [Compound 178, 2-[2-(4-bromo-1H-pyrazol-1-yl)-3-fluorophenoxy]-5-chloropyrimidine]: the pest or weed control at 125 g/ha in assay [1] (125 g ai/ha, 0 to 100 scale where 0 is no effect and 100 is complete control, read-out: Plant response rating, Crabgrass, Large) stood at 100%; in assay [2] (125 g ai/ha, 0 to 100 scale where 0 is no effect and 100 is complete control, read-out: Barnyardgrass plant response rating), 70%; in assay [5] (Ipomoea, post-emergence, 125 g ai/ha, postemergence, visual rating, scale 0 to 100 (0 no effect, 100 complete control), read-out: Plant response rating, Morningglory), 65%. For the same compound, the pest or weed control at 500 g/ha amounted to 100% in assay [1] (0 to 100 scale where 0 is no effect and 100 is complete control, read-out: Crabgrass, Large plant response rating); 100% in assay [2] (500 g ai/ha, 0 to 100 scale where 0 is no effect and 100 is complete control, read-out: Plant response rating, Barnyardgrass). Moreover, the plant injury at 125 g/ha in assay [3] (125 g ai/ha, 0 to 100 scale where 0 is no effect and 100 is complete control, read-out: Wheat plant response rating) was found to be 40%. For the same compound, the plant injury at 500 g/ha in assay [3] (500 g ai/ha, 0 to 100 scale where 0 is no effect and 100 is complete control, read-out: Plant response rating, Wheat) was 80%. Besides, in assay [4], the pest or weed control at 250 g/ha was 0%. Further, in assay [5] (31 g ai/ha, postemergence, visual rating, scale 0 to 100 (0 no effect, 100 complete control), 13 to 15 days), the “Morningglory plant response rating” value stood at 70. Further, the pest or weed control at 16 g/ha in assay [5] (Ipomoea, post-emergence, 16 g ai/ha, postemergence, 0 is no effect, 100 is complete control, read-out: Plant response rating (0 to 100), Morningglory) came to 10%. In addition, the pest or weed control at 62 g/ha in assay [5] (setting [6]) is 85%.
